Columns and labels:
Assay in all cases: DiscoverX KinomeScreen competition binding assay (kinase selectivity panel)
[1] = target: T1, panel of ninety-seven kinases (Homo sapiens, UniProt Q9P1W9); conditions: PIM2; screened at 3000 nM
T1 construct: purchased DiscoverX; host or cells: E. coli (BL21-derived, T7 phage display) or HEK-293
Outline: (§1)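 Kinases on T7 phage (BL21-derived E. coli host) or DNA-tagged from HEK-293 cells compete between compound and a bead-immobilized biotinylated ligand. Captured kinase is eluted and quantified by qPCR. Compound is tested at 3000 nM (3 μM); binding is reported as % Ctrl, with DMSO as 100% and control compound as 0%.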

[2] = target: T2, panel of ninety-seven kinases (Homo sapiens, UniProt O14757); conditions: CHEK1; screened at 3000 nM
T2 construct: purchased DiscoverX; host or cells: E. coli (BL21-derived, T7 phage display) or HEK-293
Outline: as §1

[3] = target: T3, panel of ninety-seven kinases (Homo sapiens, UniProt Q02156); conditions: PRKCE; screened at 3000 nM
T3 construct: purchased DiscoverX; host or cells: E. coli (BL21-derived, T7 phage display) or HEK-293
Outline: as §1

[4] = target: T4, panel of ninety-seven kinases (Homo sapiens, UniProt Q16539); conditions: MAPK14; screened at 3000 nM
T4 construct: purchased DiscoverX; host or cells: E. coli (BL21-derived, T7 phage display) or HEK-293
Outline: as §1

[5] = target: T5, panel of ninety-seven kinases (Homo sapiens, UniProt O15530); conditions: PDPK1; screened at 3000 nM
T5 construct: purchased DiscoverX; host or cells: E. coli (BL21-derived, T7 phage display) or HEK-293
Outline: as §1

[6] = target: T6, panel of ninety-seven kinases (Homo sapiens, UniProt O14965); conditions: AURKA; screened at 3000 nM
T6 construct: purchased DiscoverX; host or cells: E. coli (BL21-derived, T7 phage display) or HEK-293
Outline: as §1

[7] = target: T7, panel of ninety-seven kinases (Homo sapiens, UniProt Q9BVS4); conditions: RIOK2; screened at 3000 nM
T7 construct: purchased DiscoverX; host or cells: E. coli (BL21-derived, T7 phage display) or HEK-293
Outline: as §1

[8] = target: T8, panel of ninety-seven kinases (Homo sapiens, UniProt Q15303); conditions: ERBB4; screened at 3000 nM
T8 construct: purchased DiscoverX; host or cells: E. coli (BL21-derived, T7 phage display) or HEK-293
Outline: as §1

[9] = target: T9, panel of ninety-seven kinases (Homo sapiens, UniProt Q9BWU1); conditions: CDK19; screened at 3000 nM
T9 construct: purchased DiscoverX; host or cells: E. coli (BL21-derived, T7 phage display) or HEK-293
Outline: as §1

[10] = target: T10, panel of ninety-seven kinases (Homo sapiens, UniProt P27448); conditions: MARK3; screened at 3000 nM
T10 construct: purchased DiscoverX; host or cells: E. coli (BL21-derived, T7 phage display) or HEK-293
Outline: as §1

[11] = target: T11, panel of ninety-seven kinases (Homo sapiens, UniProt Q9Y463); conditions: DYRK1B; screened at 3000 nM
T11 construct: purchased DiscoverX; host or cells: E. coli (BL21-derived, T7 phage display) or HEK-293
Outline: as §1

[12] = target: T12, panel of ninety-seven kinases (Homo sapiens, UniProt O96013); conditions: PAK4; screened at 3000 nM
T12 construct: purchased DiscoverX; host or cells: E. coli (BL21-derived, T7 phage display) or HEK-293
Outline: as §1

[13] = target: T13, panel of ninety-seven kinases (Homo sapiens, UniProt P51812); conditions: RPS6KA3; screened at 3000 nM
T13 construct: purchased DiscoverX; host or cells: E. coli (BL21-derived, T7 phage display) or HEK-293
Outline: as §1

[14] = target: T14, panel of ninety-seven kinases (Homo sapiens, UniProt Q9H093); conditions: NUAK2; screened at 3000 nM
T14 construct: purchased DiscoverX; host or cells: E. coli (BL21-derived, T7 phage display) or HEK-293
Outline: as §1

[15] = target: T15, panel of ninety-seven kinases (Homo sapiens, UniProt P78368); conditions: CSNK1G2; screened at 3000 nM
T15 construct: purchased DiscoverX; host or cells: E. coli (BL21-derived, T7 phage display) or HEK-293
Outline: as §1

[16] = target: T16, panel of ninety-seven kinases (Homo sapiens, UniProt P50750); conditions: CDK9; screened at 3000 nM
T16 construct: purchased DiscoverX; host or cells: E. coli (BL21-derived, T7 phage display) or HEK-293
Outline: as §1

[17] = target: T17, panel of ninety-seven kinases (Homo sapiens, UniProt P12931); conditions: SRC; screened at 3000 nM
T17 construct: purchased DiscoverX; host or cells: E. coli (BL21-derived, T7 phage display) or HEK-293
Outline: as §1

[18] = target: T18, panel of ninety-seven kinases (Homo sapiens, UniProt Q02763); conditions: TEK; screened at 3000 nM
T18 construct: purchased DiscoverX; host or cells: E. coli (BL21-derived, T7 phage display) or HEK-293
Outline: as §1

[19] = target: T19, panel of ninety-seven kinases (Homo sapiens, UniProt O14920); conditions: IKBKB; screened at 3000 nM
T19 construct: purchased DiscoverX; host or cells: E. coli (BL21-derived, T7 phage display) or HEK-293
Outline: as §1

[20] = target: T20, panel of ninety-seven kinases (Homo sapiens, UniProt P21802); conditions: FGFR2; screened at 3000 nM
T20 construct: purchased DiscoverX; host or cells: E. coli (BL21-derived, T7 phage display) or HEK-293
Outline: as §1

[21] = target: T21, panel of ninety-seven kinases (Homo sapiens, UniProt Q13177); conditions: PAK2; screened at 3000 nM
T21 construct: purchased DiscoverX; host or cells: E. coli (BL21-derived, T7 phage display) or HEK-293
Outline: as §1

[22] = target: T22, panel of ninety-seven kinases (Homo sapiens, UniProt P36507); conditions: MAP2K2; screened at 3000 nM
T22 construct: purchased DiscoverX; host or cells: E. coli (BL21-derived, T7 phage display) or HEK-293
Outline: as §1

T13 sequence (P51812 whole entry): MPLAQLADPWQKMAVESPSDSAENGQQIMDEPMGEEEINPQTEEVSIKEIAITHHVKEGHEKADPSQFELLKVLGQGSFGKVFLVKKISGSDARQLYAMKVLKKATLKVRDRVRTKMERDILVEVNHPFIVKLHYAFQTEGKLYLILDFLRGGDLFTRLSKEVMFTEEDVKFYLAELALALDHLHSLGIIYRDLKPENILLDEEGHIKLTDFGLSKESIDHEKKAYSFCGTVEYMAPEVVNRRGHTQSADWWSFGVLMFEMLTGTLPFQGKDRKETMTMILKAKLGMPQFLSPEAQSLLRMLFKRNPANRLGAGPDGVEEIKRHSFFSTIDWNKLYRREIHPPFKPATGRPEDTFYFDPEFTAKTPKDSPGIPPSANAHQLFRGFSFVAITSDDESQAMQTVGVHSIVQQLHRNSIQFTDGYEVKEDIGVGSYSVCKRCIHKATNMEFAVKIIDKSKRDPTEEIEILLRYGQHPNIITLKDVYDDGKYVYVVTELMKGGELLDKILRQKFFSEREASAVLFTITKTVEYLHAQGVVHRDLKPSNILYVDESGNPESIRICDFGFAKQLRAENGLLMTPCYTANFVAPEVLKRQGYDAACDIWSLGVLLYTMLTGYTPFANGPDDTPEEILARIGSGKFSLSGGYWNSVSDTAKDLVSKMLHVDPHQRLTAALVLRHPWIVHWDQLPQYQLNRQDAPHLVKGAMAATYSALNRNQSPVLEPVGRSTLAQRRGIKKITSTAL
T16 sequence (P50750 whole entry): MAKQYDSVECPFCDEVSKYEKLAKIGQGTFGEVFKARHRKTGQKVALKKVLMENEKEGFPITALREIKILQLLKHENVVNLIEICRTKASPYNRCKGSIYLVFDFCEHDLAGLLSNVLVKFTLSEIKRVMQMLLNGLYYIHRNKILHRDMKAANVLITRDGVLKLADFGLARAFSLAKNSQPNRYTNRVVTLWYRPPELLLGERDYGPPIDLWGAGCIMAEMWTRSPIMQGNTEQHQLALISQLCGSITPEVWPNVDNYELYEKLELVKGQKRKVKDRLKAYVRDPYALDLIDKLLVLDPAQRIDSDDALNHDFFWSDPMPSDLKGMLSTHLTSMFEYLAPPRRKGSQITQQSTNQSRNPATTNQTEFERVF
T7 sequence (Q9BVS4 whole entry): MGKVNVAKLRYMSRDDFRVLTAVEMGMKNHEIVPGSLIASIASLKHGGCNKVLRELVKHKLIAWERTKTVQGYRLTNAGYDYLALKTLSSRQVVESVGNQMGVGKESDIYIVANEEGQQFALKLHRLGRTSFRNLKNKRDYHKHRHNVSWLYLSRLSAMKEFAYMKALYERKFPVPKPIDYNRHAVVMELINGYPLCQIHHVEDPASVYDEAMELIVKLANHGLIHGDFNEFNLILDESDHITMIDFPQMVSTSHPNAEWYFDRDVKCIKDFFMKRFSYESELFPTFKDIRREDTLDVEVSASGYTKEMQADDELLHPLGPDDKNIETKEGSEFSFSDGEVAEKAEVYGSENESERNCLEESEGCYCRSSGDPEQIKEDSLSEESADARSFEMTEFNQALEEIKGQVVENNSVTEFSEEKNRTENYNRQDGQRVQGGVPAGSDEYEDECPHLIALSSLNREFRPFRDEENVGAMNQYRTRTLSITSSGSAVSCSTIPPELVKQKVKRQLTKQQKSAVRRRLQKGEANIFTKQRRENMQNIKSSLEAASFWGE
T3 sequence (Q02156 whole entry): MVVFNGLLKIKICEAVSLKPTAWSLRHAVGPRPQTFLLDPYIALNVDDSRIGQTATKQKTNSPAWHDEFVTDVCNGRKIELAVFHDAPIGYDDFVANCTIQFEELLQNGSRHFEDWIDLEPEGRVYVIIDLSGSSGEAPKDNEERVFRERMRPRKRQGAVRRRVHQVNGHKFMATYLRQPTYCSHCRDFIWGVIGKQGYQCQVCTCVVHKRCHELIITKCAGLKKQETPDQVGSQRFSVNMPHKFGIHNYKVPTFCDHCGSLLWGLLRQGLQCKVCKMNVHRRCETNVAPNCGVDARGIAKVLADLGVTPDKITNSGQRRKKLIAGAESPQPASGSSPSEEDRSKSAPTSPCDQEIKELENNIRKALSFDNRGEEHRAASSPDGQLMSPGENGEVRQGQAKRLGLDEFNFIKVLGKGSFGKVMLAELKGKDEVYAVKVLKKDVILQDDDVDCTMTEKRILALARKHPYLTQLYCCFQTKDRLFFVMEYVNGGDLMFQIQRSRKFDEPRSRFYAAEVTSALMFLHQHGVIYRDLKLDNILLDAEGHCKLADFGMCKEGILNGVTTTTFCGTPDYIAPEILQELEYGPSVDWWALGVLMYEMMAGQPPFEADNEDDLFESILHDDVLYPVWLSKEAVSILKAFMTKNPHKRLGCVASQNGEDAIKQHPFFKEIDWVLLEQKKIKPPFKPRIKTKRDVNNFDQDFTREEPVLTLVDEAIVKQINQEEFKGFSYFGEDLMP
T10 sequence (P27448 whole entry): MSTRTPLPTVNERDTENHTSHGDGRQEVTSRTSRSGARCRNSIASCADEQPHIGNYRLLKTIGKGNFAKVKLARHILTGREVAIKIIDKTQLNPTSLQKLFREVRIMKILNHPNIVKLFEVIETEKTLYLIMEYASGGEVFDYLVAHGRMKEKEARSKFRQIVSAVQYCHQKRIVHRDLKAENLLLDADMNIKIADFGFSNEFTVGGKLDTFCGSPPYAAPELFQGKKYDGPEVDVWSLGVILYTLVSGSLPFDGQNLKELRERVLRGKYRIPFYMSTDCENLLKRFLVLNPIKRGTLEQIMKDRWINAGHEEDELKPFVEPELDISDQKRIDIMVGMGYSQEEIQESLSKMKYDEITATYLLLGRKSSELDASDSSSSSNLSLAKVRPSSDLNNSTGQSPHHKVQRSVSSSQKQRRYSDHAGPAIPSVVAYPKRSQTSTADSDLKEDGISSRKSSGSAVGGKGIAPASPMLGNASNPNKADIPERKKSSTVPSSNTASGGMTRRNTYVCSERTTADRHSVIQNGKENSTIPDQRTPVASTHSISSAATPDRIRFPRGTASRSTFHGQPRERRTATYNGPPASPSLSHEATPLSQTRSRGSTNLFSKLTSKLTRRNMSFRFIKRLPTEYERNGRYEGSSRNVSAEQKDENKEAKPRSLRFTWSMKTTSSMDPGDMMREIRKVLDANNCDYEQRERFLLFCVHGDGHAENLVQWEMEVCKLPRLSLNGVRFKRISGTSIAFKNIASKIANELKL
T18 sequence (Q02763 23-1124): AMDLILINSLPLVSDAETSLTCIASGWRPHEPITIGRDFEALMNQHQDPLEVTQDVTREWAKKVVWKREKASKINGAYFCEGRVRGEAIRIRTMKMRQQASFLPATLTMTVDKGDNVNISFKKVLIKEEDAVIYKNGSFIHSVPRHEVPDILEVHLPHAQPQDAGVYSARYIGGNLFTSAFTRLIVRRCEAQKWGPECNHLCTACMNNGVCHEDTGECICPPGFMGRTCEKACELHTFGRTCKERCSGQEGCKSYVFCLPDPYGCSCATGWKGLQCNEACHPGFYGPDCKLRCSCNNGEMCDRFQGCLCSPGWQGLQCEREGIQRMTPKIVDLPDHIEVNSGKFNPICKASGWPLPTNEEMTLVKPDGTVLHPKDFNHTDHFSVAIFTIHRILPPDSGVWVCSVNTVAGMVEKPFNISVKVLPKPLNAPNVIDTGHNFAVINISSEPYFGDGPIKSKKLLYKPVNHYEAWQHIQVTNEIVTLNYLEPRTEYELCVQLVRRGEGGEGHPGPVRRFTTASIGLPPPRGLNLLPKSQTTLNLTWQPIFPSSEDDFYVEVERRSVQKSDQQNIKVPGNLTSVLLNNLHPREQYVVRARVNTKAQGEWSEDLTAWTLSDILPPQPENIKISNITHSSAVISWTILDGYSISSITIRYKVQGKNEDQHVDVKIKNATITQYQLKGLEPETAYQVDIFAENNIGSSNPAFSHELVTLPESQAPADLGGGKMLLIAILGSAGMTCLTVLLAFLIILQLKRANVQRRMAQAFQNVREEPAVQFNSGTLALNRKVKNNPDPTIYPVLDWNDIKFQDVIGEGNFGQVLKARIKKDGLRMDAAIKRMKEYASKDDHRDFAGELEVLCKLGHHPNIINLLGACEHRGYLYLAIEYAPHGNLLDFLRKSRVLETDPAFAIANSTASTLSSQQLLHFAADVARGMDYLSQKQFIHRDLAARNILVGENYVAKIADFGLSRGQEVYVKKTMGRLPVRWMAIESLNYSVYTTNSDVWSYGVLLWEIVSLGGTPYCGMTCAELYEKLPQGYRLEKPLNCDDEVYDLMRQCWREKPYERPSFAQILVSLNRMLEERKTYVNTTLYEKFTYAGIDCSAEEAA
T17 sequence (P12931 whole entry): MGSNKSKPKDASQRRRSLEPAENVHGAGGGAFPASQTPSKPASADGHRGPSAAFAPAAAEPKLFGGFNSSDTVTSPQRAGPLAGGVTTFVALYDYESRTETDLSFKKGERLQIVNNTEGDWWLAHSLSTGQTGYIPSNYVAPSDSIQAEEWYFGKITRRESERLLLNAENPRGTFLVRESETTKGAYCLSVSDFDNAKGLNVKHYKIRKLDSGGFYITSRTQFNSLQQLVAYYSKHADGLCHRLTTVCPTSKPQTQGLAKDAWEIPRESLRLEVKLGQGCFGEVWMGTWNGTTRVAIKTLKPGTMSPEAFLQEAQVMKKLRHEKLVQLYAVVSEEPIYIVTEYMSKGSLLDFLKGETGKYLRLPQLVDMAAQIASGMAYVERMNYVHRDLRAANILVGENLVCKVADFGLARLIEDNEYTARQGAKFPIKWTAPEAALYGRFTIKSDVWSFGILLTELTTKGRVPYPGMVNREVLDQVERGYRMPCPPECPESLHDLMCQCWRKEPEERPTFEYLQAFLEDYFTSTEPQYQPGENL

% Ctrl @ 3 μM [1]: 100 % Ctrl
% Ctrl @ 3 μM [2]: 100 % Ctrl
% Ctrl @ 3 μM [3]: 99 % Ctrl
% Ctrl @ 3 μM [4]: 100 % Ctrl
% Ctrl @ 3 μM [5]: 96 % Ctrl
% Ctrl @ 3 μM [6]: 98 % Ctrl
% Ctrl @ 3 μM [7]: 100 % Ctrl
% Ctrl @ 3 μM [8]: 99 % Ctrl
% Ctrl @ 3 μM [9]: 81 % Ctrl
% Ctrl @ 3 μM [10]: 100 % Ctrl
% Ctrl @ 3 μM [11]: 97 % Ctrl
% Ctrl @ 3 μM [12]: 100 % Ctrl
% Ctrl @ 3 μM [13]: 100 % Ctrl
% Ctrl @ 3 μM [14]: 99 % Ctrl
% Ctrl @ 3 μM [15]: 100 % Ctrl
% Ctrl @ 3 μM [16]: 97 % Ctrl
% Ctrl @ 3 μM [17]: 100 % Ctrl
% Ctrl @ 3 μM [18]: 99 % Ctrl
% Ctrl @ 3 μM [19]: 96 % Ctrl
% Ctrl @ 3 μM [20]: 85 % Ctrl
% Ctrl @ 3 μM [21]: 100 % Ctrl
% Ctrl @ 3 μM [22]: 81 % Ctrl
Compound: CN(C)CCNC(=O)c1ccc(-c2ccc(-c3ccc(Cl)cc3)n2-c2ccccc2C(F)(F)F)cc1 (single isomer, unassigned) [Atropisomer A-2]
